Measurements reported in patent US20070117813A1 (priority 2003, published 2007).
Where two headings read alike, the source gives them in different places.

Columns and labels:
[1] = tested on: Phytophthora infestans; type: in vivo; details: tomato plants, protective spray, assessed after 6 days
[2] = tested on: Plasmopara viticola; assay: Activity against peronospora of grapevines caused by Plasmopara viticola; type: in vivo; details: grapevines cultivar Riesling
Protocol: The active compounds, separately or jointly, were prepared as a stock solution comprising 0.25% by weight of active compound in acetone or DMSO. 1% by weight of the emulsifier Uniperol® EL (wetting agent having emulsifying and dispersant action based on ethoxylated alkylphenols) was added to this solution, and the mixture was diluted with water to the desired concentration.
Use example 2—Activity against peronospora of grapevines caused by Plasmopara viticola
Leaves of potted grapevines of the cultivar “Riesling” were sprayed to runoff point with an aqueous suspension having the concentration of active compounds stated below. The next day, the undersides of the leaves were inoculated with an aqueous zoospore suspension of Plasmopara viticola. The grapevines were then initially placed in a water-vapor-saturated chamber at 24° C. for 48 hours and then in a greenhouse at temperatures between 20 and 30° C. for 5 days. After this period of time, the plants were, to promote sporangiophore eruption, again placed in a humid chamber for 16 hours. The extent of the development of the infection on the undersides of the leaves was then determined visually.
Evaluation was carried out analogously to example 1.

Row | Structure (SMILES) | Efficacy in % of the untreated control ([1]; 16 ppm in the spray liquor) [%] | Efficacy in % of the untreated control ([1]; 250 ppm in the spray liquor) [%] | Efficacy in % of the untreated control ([2]; 1 ppm in the spray liquor) [%] | Efficacy in % of the untreated control ([2]; 4 ppm in the spray liquor) [%] | Efficacy in % of the untreated control ([1]; 63 ppm in the spray liquor) [%]
1 | CC(C)(C)C(O)(CCc1ccc(Cl)cc1)Cn1cncn1 (racemic) [II, (R,S)-1-(4-chlorophenyl)-4,4-dimethyl-3-(1H-1,2,4-triazol-1-ylmethyl)pentan-3-ol] | 0 | 0 | 0 | 28 | –
2 | CC1CCN(c2c(-c3c(F)cccc3Cl)c(Cl)nc3ncnn23)CC1 [comparative A] | – | – | – | – | 0
3 | CC1CCN(c2c(-c3c(F)cc(F)cc3F)c(Cl)nc3ncnn23)CC1 [I, 5-chloro-7-(4-methylpiperidin-1-yl)-6-(2,4,6-trifluorophenyl)-[1,2,4]triazolo[1,5-a]pyrimidine] | – | – | 4 | 52 | 9
4 | C[C@H](Nc1c(-c2c(F)cc(F)cc2F)c(Cl)nc2ncnn12)C(F)(F)F [comparative B] | – | – | – | – | 9
